Assay results published in patent US20110040086A1, “Novel Beta-Lactam Antibiotics, Methods for Their Production, and Their Use” (DRITTE PATENTPORTFOLIO BETEILIGUNGSGESELLSCHAFT MB, priority 2007, published 2011).

Assays:
[1] = system: Escherichia coli SBUG 1135; assay: agar diffusion test (Test System 1, antimicrobial effect); assay type: cell-based; parameters: key: r = resistant (no detectable zone of inhibition)
Experimental: (§1) Test System 1 (Antimicrobial Effect)
(§2) The test germs Escherichia coli SBUG 1135 and Bacillus megaterium SBUG 1152 are drawn overnight (17 hours at 37° C.) in 5 ml nutrient medium II. The incubation is performed in a shaking incubator (INFORS AG CH 4103, Bottmingen, Switzerland) at a shaking frequency of 180 rpm.
(§3) After 17 h incubation time, Escherichia coli has reached a cell density of ca. 2.4×10^10 cells/ml and Bacillus megaterium a cell density of ca. 2.1×10^8 cells/ml.
(§4) The seeding of bacteria in agar is selected so that, dense, but not confluent individual colonies develop after the incubation.
Escherichia coli: the ÜN is diluted 1:100 with physiological saline solution, of which 0.1 ml is converted into 10 ml nutrient agar. That corresponds to a cell count of 10^6.
(§5) The inoculated nutrient agar is set in sterile Petri dishes and left standing for a few minutes for drying.
(§6) The test substances are deposited in stepped quantities (10 μg, 50 μg, 100 μg) onto active ingredient carriers (sensi-discs). For this purpose, the test substances are dissolved in methanol or A. dest. according to their solubility. Each inoculated plate is fitted with 3 test sheets.
(§7) After a 20-hour incubation time at 37° C., the zones of inhibition around the individual test sheets could be measured. The diameter of the zone of inhibition is specified in mm.

S. epidermidis 563 = assay: agar diffusion test (Test System II, multi-resistant germs); assay type: cell-based, Staphylococcus epidermidis; parameters: key: r = resistant (no detectable zone of inhibition)
Experimental: as §6
(§8) Test System II (Effect Against Multi-Resistant Germs)
(§9) For this purpose, bacteria is cultivated on Müller-Hinton-Agar II plates.
(§10) With 1-1.5 ml physiological saline solution, a bacteria suspension of McFarland 0.5 (corresponds to a bacteria density of 150×10^6 germs) is produced. Then, with a sterile glass rod, a small drop of bacteria suspension is placed on the Müller-Hinton-Agar plate and coated in three layers (vertical, horizontal, and transverse). Thereafter, the sensi-discs with the novel semi-synthetic test substances are placed on top. The fitted plates are incubated for 18-20 hours at 37° C. After incubation, the diameters of the zones of inhibition are read as a measure for the antimicrobial activity of the novel semi-synthetic test substances.

S. epidermidis 847 = assay: as above; assay type: cell-based, Staphylococcus epidermidis; parameters: key: r = resistant (no detectable zone of inhibition)
Experimental: as §6, §8, §9, §10

S. epidermidis 1068 = assay: as above; assay type: cell-based, Staphylococcus epidermidis; parameters: key: r = resistant (no detectable zone of inhibition)
Experimental: as §6, §8, §9, §10

S. epidermidis 1071 = assay: as above; assay type: cell-based, Staphylococcus epidermidis; parameters: key: r = resistant (no detectable zone of inhibition)
Experimental: as §6, §8, §9, §10

S. epidermidis 125 = assay: as above; assay type: cell-based, Staphylococcus epidermidis
Experimental: as §6, §8, §9, §10

S. aureus 38418 = assay: as above; assay type: cell-based, Staphylococcus aureus
Experimental: as §6, §8, §9, §10

S. aureus ATCC 6538 = assay: as above; assay type: cell-based, Staphylococcus aureus
Experimental: as §6, §8, §9, §10

B. subtilis AWD 166 = assay: agar diffusion test (antimicrobial effect); assay type: cell-based, Bacillus subtilis
Experimental: as §4, §5, §6, §7

[2] = system: Enterococcus faecalis 769; assay: agar diffusion test (Test System II, multi-resistant germs); assay type: cell-based; parameters: key: r = resistant (no detectable zone of inhibition)
Experimental: as §6, §8, §9, §10

[3] = system: Staphylococcus aureus 315; assay: as above; assay type: cell-based; parameters: key: r = resistant (no detectable zone of inhibition)
Experimental: as §6, §8, §9, §10

E. faecalis 945 = assay: as above; assay type: cell-based, Enterococcus faecalis; parameters: key: r = resistant (no detectable zone of inhibition)
Experimental: as §6, §8, §9, §10

S. aureus 36881 = assay: as above; assay type: cell-based, Staphylococcus aureus; parameters: key: r = resistant (no detectable zone of inhibition)
Experimental: as §6, §8, §9, §10

S. aureus 520 = assay: as above; assay type: cell-based, Staphylococcus aureus; parameters: key: r = resistant (no detectable zone of inhibition)
Experimental: as §6, §8, §9, §10

S. aureus 526 = assay: as above; assay type: cell-based, Staphylococcus aureus; parameters: key: r = resistant (no detectable zone of inhibition)
Experimental: as §6, §8, §9, §10

S. aureus 39105 = assay: as above; assay type: cell-based, Staphylococcus aureus; parameters: key: r = resistant (no detectable zone of inhibition)
Experimental: as §6, §8, §9, §10

S. aureus 33490 = assay: as above; assay type: cell-based, Staphylococcus aureus; parameters: key: r = resistant (no detectable zone of inhibition)
Experimental: as §6, §8, §9, §10

S. aureus 34289 = assay: as above; assay type: cell-based, Staphylococcus aureus; parameters: key: r = resistant (no detectable zone of inhibition)
Experimental: as §6, §8, §9, §10

[4] = system: S. aureus North Germany strain; assay: as above; assay type: cell-based, Staphylococcus aureus; parameters: key: r = resistant (no detectable zone of inhibition)
Experimental: as §6, §8, §9, §10

[5] = system: Bacillus megaterium SBUG 1152; assay: agar diffusion test (Test System 1, antimicrobial effect); assay type: cell-based
Experimental: as §1, §2, §3, §4
Bacillus megaterium: 0.1 ml of non-diluted overnight culture (ÜN) in 10 ml nutrient agar corresponds to a cell count of 10^6.
as §5, §6, §7

COC(=O)C1=C(NC(C(=O)NC2C(=O)N3C(C(=O)O)=C(C)CSC23)c2ccc(O)cc2)C(=O)C=CC1=O (stereo not drawn) [1c, 7-[2-(4-hydroxyphenyl)-2-(2-methoxycarbonyl-3,6-dioxocyclohexa-1,4-dienylamino)-acetylamino]-desacetoxycephalosporanic acid]
Diameter of zone of inhibition ([1]; Quantity n 0.019): r
Diameter of zone of inhibition ([1]; Quantity n 0.1): 14 mm
Diameter of zone of inhibition ([1]; Quantity n 0.19): 18 mm
Diameter of zone of inhibition (S. epidermidis 563; Quantity n 0.019): r
Diameter of zone of inhibition (S. epidermidis 563; Quantity n 0.1): 14 mm
Diameter of zone of inhibition (S. epidermidis 563; Quantity n 0.19): 20 mm
Diameter of zone of inhibition (S. epidermidis 847; Quantity n [mol] 0.019): r
Diameter of zone of inhibition (S. epidermidis 847; Quantity n [mol] 0.1): 14 mm
Diameter of zone of inhibition (S. epidermidis 847; Quantity n [mol] 0.19): 18 mm
Diameter of zone of inhibition (S. epidermidis 1068; Quantity n 0.019): r
Diameter of zone of inhibition (S. epidermidis 1068; Quantity n 0.1): 14 mm
Diameter of zone of inhibition (S. epidermidis 1068; Quantity n 0.19): 20 mm
Diameter of zone of inhibition (S. epidermidis 1071; Quantity n 0.019): r
Diameter of zone of inhibition (S. epidermidis 1071; Quantity n 0.1): 14 mm
Diameter of zone of inhibition (S. epidermidis 1071; Quantity n 0.19): 20 mm
Diameter of zone of inhibition (S. epidermidis 125; Quantity n 0.019): 12 mm
Diameter of zone of inhibition (S. epidermidis 125; Quantity n 0.1): 24 mm
Diameter of zone of inhibition (S. epidermidis 125; Quantity n 0.19): 28 mm
Diameter of zone of inhibition (S. aureus 38418; Quantity n [mol] 0.019): 10 mm
Diameter of zone of inhibition (S. aureus 38418; Quantity n [mol] 0.1): 22 mm
Diameter of zone of inhibition (S. aureus 38418; Quantity n [mol] 0.19): 28 mm
Diameter of zone of inhibition (S. aureus ATCC 6538; Quantity n 0.019): 18 mm
Diameter of zone of inhibition (S. aureus ATCC 6538; Quantity n 0.1): 26 mm
Diameter of zone of inhibition (S. aureus ATCC 6538; Quantity n 0.19): 30 mm
Diameter of zone of inhibition (B. subtilis AWD 166; Quantity n 0.019): 22 mm
Diameter of zone of inhibition (B. subtilis AWD 166; Quantity n 0.1): 30 mm
Diameter of zone of inhibition (B. subtilis AWD 166; Quantity n 0.19): 32 mm
Diameter of zone of inhibition ([2]; Quantity n 0.019): r
Diameter of zone of inhibition ([2]; Quantity n 0.1): r
Diameter of zone of inhibition ([2]; Quantity n 0.19): r
Diameter of zone of inhibition ([3]; Quantity n 0.019): r
Diameter of zone of inhibition ([3]; Quantity n 0.1): r
Diameter of zone of inhibition ([3]; Quantity n 0.19): 12 mm
Diameter of zone of inhibition (E. faecalis 945; Quantity n 0.019): r
Diameter of zone of inhibition (E. faecalis 945; Quantity n 0.1): r
Diameter of zone of inhibition (E. faecalis 945; Quantity n 0.19): r
Diameter of zone of inhibition (S. aureus 36881; Quantity n 0.019): r
Diameter of zone of inhibition (S. aureus 36881; Quantity n 0.1): r
Diameter of zone of inhibition (S. aureus 36881; Quantity n 0.19): 14 mm
Diameter of zone of inhibition (S. aureus 520; Quantity n [mol] 0.019): r
Diameter of zone of inhibition (S. aureus 520; Quantity n [mol] 0.1): r
Diameter of zone of inhibition (S. aureus 520; Quantity n [mol] 0.19): r
Diameter of zone of inhibition (S. aureus 526; Quantity n 0.019): r
Diameter of zone of inhibition (S. aureus 526; Quantity n 0.1): r
Diameter of zone of inhibition (S. aureus 526; Quantity n 0.19): r
Diameter of zone of inhibition (S. aureus 39105; Quantity n 0.019): r
Diameter of zone of inhibition (S. aureus 39105; Quantity n 0.1): r
Diameter of zone of inhibition (S. aureus 39105; Quantity n 0.19): 12 mm
Diameter of zone of inhibition (S. aureus 33490; Quantity n [μmol] 0.019): r
Diameter of zone of inhibition (S. aureus 33490; Quantity n [μmol] 0.1): 14 mm
Diameter of zone of inhibition (S. aureus 33490; Quantity n [μmol] 0.19): 20 mm
Diameter of zone of inhibition (S. aureus 34289; Quantity n [mol] 0.019): r
Diameter of zone of inhibition (S. aureus 34289; Quantity n [mol] 0.1): r
Diameter of zone of inhibition (S. aureus 34289; Quantity n [mol] 0.19): r
Diameter of zone of inhibition ([4]; Quantity n 0.019): r
Diameter of zone of inhibition ([4]; Quantity n 0.1): 10 mm
Diameter of zone of inhibition ([4]; Quantity n 0.19): 14 mm
Diameter of zone of inhibition ([5]; Quantity n 0.019): 22 mm
Diameter of zone of inhibition ([5]; Quantity n 0.1): 30 mm
Diameter of zone of inhibition ([5]; Quantity n 0.19): 32 mm
